Usually pIC50 stands for the negative decadic logarithm of the IC50, by convention in mol/L. Low readings indicate a large IC50, high ones a small IC50.

Each structure is given as a SMILES string. pIC50: −log10 of the molar value. Residues, ends and D or L forms follow the SMILES beside them. A value given as a limit tells only on which side of the number the result lay.

The results in this text go back to US20230416314A1, “MODIFIED HIGH MOLECULAR WEIGHT GLUTENIN SUBUNIT AND USES THEREOF” (Ukko Inc., priority 2020, published 2023).

One assay concerns the target HLA-DQ2.5 (Homo sapiens, UniProt P01909+P01920, A45G/A70V/D89A/E106A/E77G/E98D/H199R/L107V/N214S/P84L/P87L/T103K/T109R/T172A/T60S/V78E/V99I/Y58L/Y62S/Y69I/Y79F). Put plainly: MHC II/peptide competition binding assay, HLA-DQ2.5. The procedure: (§1) One skilled in the art would appreciate that the 15-mers used included shorter de-epitoped high molecular weight glutenin peptide sequences (mutated repeating antigenic units), as described throughout. For example, Table 2 provides a listing of 15-mers and the shorter mutated repeating antigenic units present therein. […] MHC II molecules were purified by affinity chromatography, and peptides were radiolabeled using the chloramine T method. After an incubation period, the bound and unbound radiolabeled species were separated, and their relative amounts were determined by either size-exclusion gel-filtration chromatography or monoclonal antibody capture of MHC. The percent of bound radioactivity was then determined.

In assay [1] the test system is Gluten-reactive T-cell lines (TCLs) from celiac disease patients' biopsies. Put plainly: T-cell activation assay (IFN-γ ELISA). The format is cell-based, human. The following applies: peptides 10 μM, 48 h; positive if IFNγ ≥2-fold vs control and significantly higher (one-sided t-test). The method, then:
200 mg of protein were first incubated in 5% formic acid with 4 mg pepsin for 4 hours in 37° C. Then the sample was evaporated using speedVac. On the following day, the protein was incubated with 4 mg chymotrypsin in 20 mM ammonium-bicarbonate for 4 hours in 37° C., followed by speedVac evaporation. The concentration of the digest was then measured, and the digest was deamidated using transglutaminase, 2 U per 7 mg digest for 6 hours in 37° C. The samples were then cleaned using a C18 column, dried and resuspended in media at a concentration of 2 mg/ml. […]
TCLs from celiac disease patients' biopsies were assayed for responses to deamidated PCT-HMW proteins and HMW peptides by the detection of IFN-7 by enzyme-linked immunosorbent assay (ELISA), as previously described (Gianfrani, Carmen, et al. “Gliadin-specific type 1 regulatory T cells from the intestinal mucosa of treated celiac patients inhibit pathogenic T cells.” The journal of immunology 177.6 (2006): 4178-4186.). […] The reaction was stopped, and the plate was read on the ELISA plate reader at […]. The results were analyzed using Graphpad Prism and IFNγ levels were determined. […]
(An ELISA detects its analyte on a solid surface through an enzyme-linked reagent.)

The next assay addresses HLA-DQ8 (Homo sapiens, UniProt P01909+P01920, A209T/A45G/C70Q/D89A/DUP78-78/E183D/E77G/F237L/G63E/H199R/I129T/K197E/L178F/L74F/L98V/Q57E/Q76R/S185I/S97I/T217I/T49S/V73L/Y58L). Briefly: MHC II/peptide competition binding assay, HLA-DQ8. The method, then:
as §1

Regarding `C[C@@H](O)[C@H](NC(=O)[C@@H]1CCCN1C(=O)[C@H](Cc1ccc(O)cc1)NC(=O)[C@H](Cc1ccc(O)cc1)NC(=O)CNC(=O)[C@H](CCCCN)NC(=O)[C@H](CCC(N)=O)NC(=O)CNC(=O)[C@@H](N)CCC(N)=O)C(=O)N[C@@H](CO)C(=O)N1CCC[C@H]1C(=O)N[C@@H](Cc1c[nH]cn1)C(=O)N[C@@H](CCC(N)=O)C(=O)N[C@@H](CO)C(=O)NCC(=O)O` [SEQ ID NO: 143] (H-QGQKGYYPTSPHQSG-OH; N-terminus assumed), the pIC50 on HLA-DQ2.5 is 4.46; at HLA-DQ8 it was less than 4.40. For the same molecule, the “T-cell activation (IFN-γ levels by ELISA)” value in assay [1] is “abolishment of T-cell activation”.
